Results on one molecule are retold here after patent publication US20240207410A1, “STABILIZED LIQUID COMPOSITIONS COMPRISING A LEVODOPA-TYROSINE CONJUGATE AND USES THEREOF” (NeuroDerm, Ltd., priority 2021, published 2024).

Each structure is given as a SMILES string. Where a SMILES comes first, the peptide text is derived from it. [ ]: non-standard residue; d: D form. Dopa = N[C@@H](Cc1ccc(O)c(O)c1)C(=O)O

Series [1] can be described thus: Long-term stability of 30% LD-Tyrosine/0.75% carbidopa at 2-8° C. Format: physicochemical. How it is done: The formulation also included 0.5% ascorbic acid (Asc), 0.5% N-acetyl cysteine (NAC) and 0.3% Tween 80. The formulation was stored at 2-8° C. for the time indicated, and % recovery and % LD-Tyr-DKP formation (an impurity) were tested. Percent recovery remained high over time. The DKP impurity accumulated over time.

The test system of series [2] is red blood cells (RBC). Briefly: Blood/plasma ratio, partitioning into red blood cells, rat blood ex vivo. Format: in vitro ADME.
For series [3], the system named is red blood cells (RBC). Briefly: Blood/plasma ratio, partitioning into red blood cells, minipig blood ex vivo. It counts as in vitro ADME. The note with it: for KRBC/PL: 50 ng/mL.

As for `N[C@@H](Cc1ccc(O)c(O)c1)C(=O)N[C@@H](Cc1ccc(O)cc1)C(=O)O` [LD-Tyr, levodopa-tyrosine (LD-Tyr) conjugate of the formula (II)] (H-[Dopa]-Tyr-OH), the “% DKP” value in series [1] (1 month) turned out to be 1.88 % area; in series [1] (1 week) it was 0.99 % area; in series [1] (2 months) it was 2.60 % area; in series [1] (2 weeks) it was 1.19 % area; in series [1] (3 months), 4.04 % area; in series [1] (t = 0), 0.86 % area. Moreover, the “mg/mL (concentration in formulation)” value worked out at 295.74 mg/mL in series [1] (1 month); 294.13 mg/mL in series [1] (1 week); 302.47 mg/mL in series [1] (2 months); 304.25 mg/mL in series [1] (2 weeks); 296.57 mg/mL in series [1] (3 months); 297.62 mg/mL in series [1] (t = 0). Further, the “KRBC/PL versus time of incubation” value is given as “increased with the time of incubation” in the series on red blood cells (RBC) [2] (rat blood); “increased with the time of incubation” in the series on red blood cells (RBC) [3] (minipig blood, two highest concentrations (150 and 2500 ng/mL)). For the same molecule, the RBC binding result in the series with red blood cells (RBC) [2] (rat blood) and in the series on red blood cells (RBC) [3] (minipig blood) was “limited RBC binding” each time. For the same molecule, the “partition coefficient between RBC and plasma (KRBC/PL)” value was “below five” in the series on red blood cells (RBC) [2] (rat blood, 50, 150 and 2500 ng/mL); “below five” in the series on red blood cells (RBC) [3] (minipig blood, 50, 150 and 2500 ng/mL). Moreover, the KRBC/PL was 0.0 in the series on red blood cells (RBC) [3] (minipig blood, after 30 minutes (declined)); 1 in the series with red blood cells (RBC) [3] (minipig blood, at 15 and 30 minutes).
